Data on eight compounds can be found in patent US11399543B2, “Substituted 1,2,3,5-tetrahydroimidazo[1,2-a]pyrimidiniumolates for combating animal pests” (BASF SE, priority 2017, dated 2022).

As a reminder, the mortality is the percentage killed.

Where two headings read alike, the source gives them in different places. A value given as a limit tells only on which side of the number the result lay.

Format in all cases: in vivo
The test system of series [1] is green peach aphid (Myzus persicae). The series is described as follows: Green peach aphid B.5.2, systemic, artificial diet under membrane. The conditions noted are these: 72 h, read-out: mortality in comparison with untreated controls. The source says:
B.5.2. For evaluating control of green peach aphid (Myzus persicae) through systemic means the test unit consisted of 96-well-microtiter plates containing liquid artificial diet under an artificial membrane. The compounds were formulated using a solution containing 75% v/v water and 25% v/v DMSO. Different concentrations of formulated compounds were pipetted into the aphid diet, using a custom built pipetter, at two replications.
After application, 5-8 adult aphids were placed on the artificial membrane inside the microtiter plate wells. The aphids were then allowed to suck on the treated aphid diet and incubated at about 23±1° C. and about 50±5% relative humidity for 3 days. Aphid mortality and fecundity was then visually assessed.

The test system of series [2] is Cowpea Aphid (Aphis craccivora). The experiment in a line: Cowpea aphid, sprayed potted cowpea plants. The conditions noted are these: after 72 hours, read-out: mortality in comparison with untreated controls. The method, then:
(§1) The active compound is dissolved at the desired concentration in a mixture of 1:1 (vol:vol) distilled water:acetone. Surfactant (Alkamuls® EL 620) is added at a rate of 0.1% (vol/vol). The test solution is prepared at the day of use.
Potted cowpea plants were colonized with approximately 50-100 aphids of various stages by manually transferring a leaf tissue cut from infested plant 24 hours before application. Plants were sprayed after the pest population has been recorded. Treated plants are maintained on light carts at about 28° C. Percent mortality was assessed after 72 hours.

Series [3] deals with Rice Green Leafhopper (Nephotettix virescens). The experiment in a line: Rice green leafhopper, sprayed rice seedlings. Conditions: after 72 hours, adults, read-out: mortality in comparison with untreated controls. How it is done: Rice seedlings were cleaned and washed 24 hours before spraying. The active compounds were formulated in 50:50 acetone:water (vol:vol), and 0.1% vol/vol surfactant (EL 620) was added. Potted rice seedlings were sprayed with 5 ml test solution, air dried, placed in cages and inoculated with 10 adults. Treated rice plants were kept at about 28-29° C. and relative humidity of about 50-60%. Percent mortality was recorded after 72 hours.

In series [4] the test system is tobacco budworm (Heliothis virescens). The experiment in a line: Tobacco budworm control, microtiter plate insect diet with eggs. Conditions: 120 h, 5 days, read-out: mortality in comparison with untreated controls (egg and larval mortality). The method, then:
For evaluating control of tobacco budworm (Heliothis virescens) the test unit consisted of 96-well-microtiter plates containing an insect diet and 15-25 H. virescens eggs.
The compounds were formulated using a solution containing 75% v/v water and 25% v/v DMSO. Different concentrations of formulated compounds were sprayed onto the insect diet at 10 μl, using a custom built micro atomizer, at two replications.
After application, microtiter plates were incubated at about 28±1° C. and about 80±5% relative humidity for 5 days. Egg and larval mortality was then visually assessed.

Series [5] has as its system Rice Brown Plant Hopper (Nilaparvata lugens). The series is described as follows: Rice brown plant hopper, sprayed rice seedlings. The conditions noted are these: after 72 hours, adults, read-out: mortality in comparison with untreated controls. How it is done:
Rice seedlings were cleaned and washed 24 hours before spraying. The active compounds were formulated in 50:50 acetone:water (vol:vol) and 0.1% vol/vol surfactant (EL 620) was added. Potted rice seedlings were sprayed with 5 ml test solution, air dried, placed in cages and inoculated with 10 adults. Treated rice plants were kept at about 28-29° C. and relative humidity of about 50-60%. Percent mortality was recorded after 72 hours.

In series [6] the test system is vetch aphid (Megoura viciae). The experiment in a line: Vetch aphid, broad bean leaf disks, contact or systemic. Conditions: foliar, 120 h, 5 days, read-out: mortality in comparison with untreated controls. How it is done:
For evaluating control of vetch aphid (Megoura viciae) through contact or systemic means the test unit consisted of 24-well-microtiter plates containing broad bean leaf disks.
The compounds were formulated using a solution containing 75% v/v water and 25% v/v DMSO. Different concentrations of formulated compounds were sprayed onto the leaf disks at 2.5 μl, using a custom built micro atomizer, at two replications.
After application, the leaf disks were air-dried and 5-8 adult aphids placed on the leaf disks inside the microtiter plate wells. The aphids were then allowed to suck on the treated leaf disks and incubated at about 23±1° C. and about 50±5% relative humidity for 5 days. Aphid mortality and fecundity was then visually assessed.

Series [7] deals with Diamond Back Moth (Plutella xylostella). The experiment in a line: Diamond back moth, cabbage leaf dip. The conditions noted are these: foliar, 72 hours after treatment, 3rd instar larvae, read-out: mortality in comparison with untreated controls. How it is done: as §1
Leaves of cabbage were dipped in test solution and air-dried. Treated leaves were placed in petri dish enlined with moist filter paper and inoculated with ten 3rd instar larvae. Mortality was recorded 72 hours after treatment. Feeding damages were also recorded using a scale of 0-100%.

In series [8] the test system is Southern Armyworm (Spodoptera eridania), 2nd Instar Larvae. The series is described as follows: Southern armyworm, sprayed lima bean plants. Conditions: 96 h, 4 days after treatment, read-out: mortality in comparison with untreated controls. The method, then: The active compounds were formulated in cyclohexanone as a 10,000 ppm solution supplied in tubes. The tubes were inserted into an automated electrostatic sprayer equipped with an atomizing nozzle and they served as stock solutions for which lower dilutions were made in 50% ace-tone:50% water (v/v). A nonionic surfactant (Kinetic®) was included in the solution at a volume of 0.01% (v/v).
Lima bean plants (variety sieva) were grown 2 plants to a pot and selected for treatment at the 1st true leaf stage. Test solutions were sprayed onto the foliage by an automated electrostatic plant sprayer equipped with an atomizing spray nozzle. The plants were dried in the sprayer fume hood and then removed from the sprayer. Each pot was placed into perforated plastic bags with a zip closure. About 10 to 11 armyworm larvae were placed into the bag and the bags zipped closed. Test plants were maintained in a growth room at about 25° C. and about 20-40% relative humidity for 4 days, avoiding direct exposure to fluorescent light (24 hour photoperiod) to prevent trapping of heat inside the bags. Mortality and reduced feeding were assessed 4 days after treatment, compared to untreated control plants.

Series [9] has as its system Green Soldier Stink Bug (Nezara viridula). The series is described as follows: Green soldier stink bug, sprayed soybean pods in Petri dishes. Conditions: 120 h, after 5 days, late 3rd instar, read-out: mortality in comparison with untreated controls. The method, then:
The active compound was dissolved at the desired concentration in a mixture of 1:1 (vol:vol) distilled water:aceteone. Surfactant (Kinetic® HV) is added at a rate of 0.01% (vol/vol). The test solution was prepared at the day of use.
Soybean pods were placed in 90×50 mm glass Petri dishes lined with moist filter paper and inoculated with ten late 3rd instar N. viridula. Using a hand atomizer, an approximately 2 ml solution is sprayed into each Petri dish. Treated cups were kept at about 25-26° C. and relative humidity of about 65-70%. Percent mortality was recorded after 5 days.

Series [10] has as its system Green Peach Aphid (Myzus persicae, Mixed Life Stages). The series is described as follows: Green peach aphid B.5.1, sprayed bell pepper plants. Conditions: 120 h, after 5 days, read-out: mortality in comparison with untreated controls. How it is done:
B.5.1. The active compounds were formulated by a Tecan liquid handler in 100% cyclohexanone as a 10,000 ppm solution supplied in tubes. The 10,000 ppm solution was serially diluted in 100% cyclohexanone to make interim solutions. These served as stock solutions for which final dilutions were made by the Tecan in 50% acetone:50% water (v/v) into 10 or 20 ml glass vials. A nonionic surfactant (Kinetic®) was included in the solution at a volume of 0.01% (v/v). The vials were then inserted into an automated electrostatic sprayer equipped with an atomizing nozzle for application to plants/insects.
Bell pepper plants at the first true-leaf stage were infested prior to treatment by placing heavily infested leaves from the main colony on top of the treatment plants. Aphids were allowed to transfer overnight to accomplish an infestation of 30-50 aphids per plant and the host leaves were removed. The infested plants were then sprayed by an automated electrostatic plant sprayer equipped with an atomizing spray nozzle. The plants were dried in the sprayer fume hood, removed, and then maintained in a growth room under fluorescent lighting in a 24-hr photoperiod at about 25° C. and about 20-40% relative humidity. Aphid mortality on the treated plants, relative to mortality on untreated control plants, was determined after 5 days.

Series [11] deals with Silverleaf Whitefly (Bemisia argentifolii) (Adults). The series is described as follows: Silverleaf whitefly adults, sprayed cotton plants. Conditions: at 300, 3 days after treatment. The source says: The active compounds were formulated in cyclohexanone as a 10,000 ppm solution supplied in tubes. The tubes were inserted into an automated electrostatic sprayer equipped with an atomizing nozzle and they served as stock solutions for which lower dilutions were made in 50% ace-tone:50% water (v/v). A non-ionic surfactant (Kinetic®) was included in the solution at a volume of 0.01% (v/v).
Cotton plants at the cotyledon stage (one plant per pot) were sprayed by an automated electrostatic plant sprayer equipped with an atomizing spray nozzle. The plants were dried in the sprayer fume hood and then removed from the sprayer. Each pot was placed into a plastic cup and about 10 to 12 whitefly adults (approximately 3-5 days old) were introduced. The insects were collected using an aspirator and a nontoxic Tygon® tubing connected to a barrier pipette tip. The tip, containing the collected insects, was then gently inserted into the soil containing the treated plant, allowing insects to crawl out of the tip to reach the foliage for feeding. Cups were covered with a reusable screened lid. Test plants were maintained in a growth room at about 25° C. and about 20-40% relative humidity for 3 days, avoiding direct exposure to fluorescent light (24-hour photoperiod) to prevent trapping of heat inside the cup. Mortality was assessed 3 days after treatment, compared to untreated control plants.

Where [12] appears, read: at 2500 ppm, 3 days, systemic, artificial diet.

For the compound `COc1ccc(-c2c([O-])n3c([n+](C)c2=O)N(C)CC3c2cnc(Cl)s2)cc1` (centres unmarked) [Compound C-1, 3-(2-chlorothiazol-5-yl)-6-(4-methoxyphenyl)-1,8-dimethyl-7-oxo-2,3-dihydroimidazo[1,2-a]pyrimidin-8-ium-5-olate], in [1] (setting [12]), the mortality at 2500 ppm is more than 75%. The mortality at 300 ppm in series [2] is more than 75%.
Take `C[n+]1c([O-])c(-c2ccccc2)c(=O)n2c1N(C(=O)OC(C)(C)C)CC2c1cnc(Cl)s1` (centres unmarked) [Compound C-2]: the mortality at 2500 ppm in series [1] (setting [12]) is more than 75%.
For the compound `CN1CC(c2cnc(Cl)s2)n2c1[n+](C)c([O-])c(-c1ccccc1)c2=O` (centres unmarked) [Compound C-3], the mortality at 300 ppm in series [3], in series [5] and in series [2] was more than 75% throughout. The mortality at 2500 ppm in [4], in series [1] (setting [12]) and in [6] was more than 75% throughout.
Consider `CN1CC(c2cnc(Cl)s2)n2c1[n+](C)c([O-])c(-c1cc(Cl)cc(Cl)c1)c2=O` (centres unmarked) [Compound C-4], for which the mortality at 300 ppm in series [3], in series [5], in series [2], in [7] and in [8] was more than 75% each time. Further, the mortality at 2500 ppm in [4], in [1] (setting [12]) and in series [6] was more than 75% each time.
With `CN1CC(c2cnc(Cl)s2)n2c1[n+](C)c([O-])c(-c1cccc(C(F)(F)F)c1)c2=O` (centres unmarked) [Compound C-5], the mortality at 300 ppm in series [3], in series [5], in [2], in series [7], in series [9] and in series [10] was more than 75% in each case. The mortality at 300 ppm in [8] is more than 75%. For the same compound, the mortality at 2500 ppm in series [4], in series [1] (setting [12]) and in [6] was more than 75% in each case. The “mortality in comparison with untreated controls” value in series [11] is “over 75%”.
In the case of `CN1C[C@@H](c2cnc(Cl)s2)n2c1[n+](C)c([O-])c(-c1cccc(C(F)(F)F)c1)c2=O` [Compound C-20], the mortality at 2500 ppm in series [1] (setting [12]) and in [6] was more than 75% throughout. The mortality at 300 ppm in [2], in series [9] and in series [8] was more than 75% each time.
As to `CN1CC(c2ccc(Cl)nc2)n2c1[n+](C)c([O-])c(-c1cc(Cl)cc(Cl)c1)c2=O` (centres unmarked) [Compound C-21], the mortality at 2500 ppm in [1] is more than 75%.
For `C[n+]1c2n(c([O-])c(-c3ccccc3)c1=O)C(c1cnc(Cl)s1)CN2` (centres unmarked) [Compound C-25], in series [1], the mortality at 2500 ppm is more than 75%.
